Assays:
Lipoxygenase = assay: Ex-Vivo Measurement of Lipoxygenase Inhibition in Orally Dosed Rats (LTB4 in A23187-stimulated blood); set-up: species or system Male Sprague Dawley rats; conditions: p.o.
Protocol: 2. Ex-Vivo Measurement of Lipoxygenase Inhibition in Orally Dosed Rats
After an interval of 3 or 6 hours, the rats were anesthetized with metofane (n=4/group) and blood collected in heparinized tubes. White blood cell counts and differentials were made. One ml of blood from each animal was placed in a 5 ml plastic tube in a shaker bath at 37° C. A23187 at a final concentration of 10 μM was added to the blood and the blood vortexed and incubated for 15 min at 37° C. with gentle shaking. Incubation was terminated by vortexing sample and centrifuging immediately at 1200× G for 15 min at 4° C. The plasma was transferred to 15 ml plastic tubes each containing 8 ml of methanol to precipitate protein followed by vortexing. The samples were stored at -70° C. overnight and the next day the samples were centrifuged at 800× G for 15 min to pellet the precipitate. The samples were dried in a Savant SpeedVac Concentrator Model SVC 200H and reconstituted to the original volume with cold RIA or ELISA buffer. The reconstituted samples were stored at -70° C. until assayed. The assay for LTB4 was performed according to the directions of the ^3 H!RIA kit or ELISA kit (Seragen). The total metabolite level in 1 ml of blood is calculated and reported as ng/10^6 neutrophils. Significance is determined by a one-way analysis of variance with LSD comparisons to control (p≤0.05).

Low Density Lipoprotein = assay: Inhibition of Copper Ion Mediated Oxidation of Low Density Lipoprotein; format: biochemical; conditions: Cu^+2 mediated oxidation of rabbit or monkey LDL
Protocol: 5. Inhibition of Copper Ion Mediated Oxidation of Low Density Lipoprotein
In this in vitro assay, the inhibition of Cu^+2 mediated oxidation of rabbit or monkey LDL by an invention compound is determined spectrophotometricallly. Oxidation of LDL results in the formation of LDL-diene which absorbs light at 532 nm. Inhibition of oxidation of LDL leads to a decrease in absorbance at 532 nm.
Rabbit or monkey LDL is prepared according to the procedures of Havel, Eder and Gragdon, "The Distribution and Chemical Composition of Ultracentrifugally Separated Lipoproteins in Human Serum,: J, Clin. Invest. 34, 1345-1353 (1955) and Parhtasarathy, Wieland and Steriberg, "A Role for Endothelial Cell Lipoxygenase in the Oxidative Modification of Low Density Lipoprotein," Proc, Natl. Acad. Sci. USA 86, 1046-1050 (1989). Test compound solutions are prepared by dissolving the invention compounds in ethanol at concentrations up to 248 μM. The medium used is Dulbecco's phosphate buffered saline containing 0.5 mg/ml bovine serum albumin. For standards, 0 to 10 μl of an aqueous solution of 1,1,3,3-tetraethoxypropane (1 μmol/ml H2 O) in 4.1 ml of medium is used.
Test compound solution (100 μl) is added to 4 ml of medium in incubation tubes. To each tube is added 10 μl of LDL solution and 25 μl of aqueous copper sulfate solution (1.32 mg/ml H2 O ). The tubes are incubated at 37° C. for 90 minutes and the oxidation reaction quenched by addition of 1 ml of thiobarbituric acid solution (0.67% in 50% acetic acid). The tubes are heated at 90° C. for 1 hour, then chilled in an ice bath and the chromophore extracted into 2 ml of n-butanol. Absorbence is read at 532 nm and the results are reported as nmols of malondialdehyde equivalents.
Significant differences (p<0.05) are determined by the Dunnett T-test or by the Student-Newman-Keuls Test for significant differences between means. The assay is conducted using several concentrations I! of the inhibitor test compounds. The LDL solution concentrations at different experiments were either 1.5 mg/ml, 2.5 mg/ml or 10.3 mg/ml. The IC50 is determined by non-linear regression, plotting log I! vs. % inhibition. (Reference: K. Yagi, Biochemical Medicine 15, 212-216 (1976)).

[1] = tested on: LT-dependent bronchoconstriction; assay: Inhibition of Bronchoconstriction in Guinea Pigs Induced by Exogenously Administered Antigen (ovalbumin); format: in vivo, Male guinea pigs; conditions: Cavia porcellus, 5 min; for inhibition in vivo at 10 mg/kg: iv
Protocol: 4. Inhibition of Brochoconstriction in Guinea Pigs Induced by Exogenously Administered Antigen
Male guinea pigs (Charles River, Wilmington, Mass.) were sensitized 3-4 weeks prior to antigen challenge by administration of 2 i.m. injections of ovalbumin, 1 into each hind limb (35 mg total). Sensitized animals (500-600 g) were fasted overnight prior to experimentation. Conscious animals were then dosed p.o. with drug or vehicle alone (0.5% Tween 80 in H2 O) at the indicated times prior to antigen challenge, or anesthetized animals were dosed i.v. with drug or vehicle alone (DMSO) 5 min prior to antigen challenge. Animals were anesthetized by urethane (2.8 g/kg i.p.). A carotid artery and jugular vein were cannulated to allow for the monitoring of blood pressure and the administration of drugs, respectively. The trachea was then cannulated and connected to a Harvard Apparatus rodent ventilator (S. Natick, Mass). Spontaneous respiration was abolished by the administration of succinylcholine (2.5 mg/kg i.v.). The animals were then ventilated with room air at a rate of 65 breaths per min. Airway inflation pressure was measured using a Statham pressure transducer (Gould Instruments, Cleveland, Ohio) connected to the tracheal cannula via a side-arm and recorded on a Grass Instruments recorder (Quincy, Mass). The tidal volume (approximately 10 cc/kg) was adjusted to give a baseline inflation pressure of 8-10 cm H2 O at end inspiration. Animals were then allowed 20 min to stabilize.
Following the stabilization period, animals were given i.v. injections of pyrilamine (5 mg/kg), propranolol (0.1 mg/kg) and indomethacin (10 mg/kg) at 15, 10 and 5 min, respectively, prior to antigen challenge. This pretreatment results in an LT-dependent bronchoconstriction following antigen challenge, which was accomplished by i.v. administration of ovalbumin (10 mg/kg). Only one bronchoconstriction per animal was induced. End-inspiratory inflation pressure (in cm H2 O over baseline) was measured at 5 min post-antigen challenge. A mean value and standard error for the % inhibition of control bronchoconstriction in each drug-treated group was then calculated.

[2] = 5 mg/kg, pretreatment period 6 hr

Row | Structure (SMILES) | % Inhibition of LTB4 (Lipoxygenase; 10 mg/kg, pretreatment period 3 hr) [%] | % Inhibition of LTB4 (Lipoxygenase; 10 mg/kg, pretreatment period 6 hr) [%] | IC50 (Low Density Lipoprotein) [nM] | inhibition in vivo at 10 mg/kg [1] [%] | % Inhibition of LTB4 (Lipoxygenase; [2]) [%] | inhibition in vivo at 25 mg/kg ([1]; po) [%] | inhibition in vivo at 50 mg/kg ([1]; po, 50 mg/kg) [%]
1 | Cc1oc(-c2ccccc2)nc1COc1ccc(CN(O)C(N)=O)cc1 [Example 1, 1-Hydroxy-1-4-(5-methyl-2-phenyl-oxazol-4-ylmethoxy)-benzyl!-urea] | 84 | 75 | 1100 | 38 | – | – | –
2 | Cc1oc(-c2ccc(C(F)(F)F)cc2)nc1COc1ccc(CN(O)C(N)=O)cc1 [Example 6, 1-Hydroxy-1-4-5-methyl-2-(4-trifluoromethyl-phenyl)-oxazol-4-ylmethoxy!-benzyl!-urea] | – | – | – | 27 | 70 | 27 | –
3 | NC(=O)N(O)Cc1ccc(OCc2coc(-c3ccccc3)n2)cc1 [Example 9, 1-Hydroxy-1-4-(2-phenyl-oxazol-4-ylmethoxy)-benzyl!-urea] | – | – | – | 54 | 60 | – | 44
4 | NC(=O)N(O)Cc1ccc(OCc2csc(-c3ccccc3)n2)cc1 [Example 10, 1-Hydroxy-1-4-(2-phenyl-thiazol-4-ylmethoxy)-benzyl!-urea] | – | – | – | 50 | 67 | 24 | –

— patent US5504097A, “N-hydroxyureas as 5-lipoxygenase inhibitors and inhibitors of oxidative modification of low density lipoprotein” (American Home Products Corporation, priority 1995, dated 1996)
